Consider 19 compounds from patent publication US10414754B2, “Indolizine compounds, a process for their preparation and pharmaceutical compositions containing them” (LES LABORATOIRES SERVIER, priority 2013, dated 2019).

One test has as its target T1, Bcl-2 protein (histag-Bcl-2, UniProtKB P10415) (Homo sapiens, UniProt P10415).
T1 construct: His tag
The test can be described thus: Inhibition of Bcl-2 by the fluorescence polarisation technique. The class given is binding. The following applies: for IC50: fluorescence polarisation, 2 hours incubation, read-out: IC50 (nM) Bcl-2 FP. As to the method:
The fluorescence polarisation tests were carried out on microplates (384 wells). The Bcl-2 protein, labelled (histag-Bcl-2 such that Bcl-2 corresponds to the UniProtKB® primary accession number: P10415), at a final concentration of 2.50×10^−8 M, is mixed with a fluorescent peptide (Fluorescein-[…]), at a final concentration of 1.00×10^−8M in a buffer solution (Hepes 10 mM, NaCl 150 mM, Tween20 0.05%, pH 7.4), in the presence or absence of increasing concentrations of test compounds. After incubation for 2 hours, the fluorescence polarisation is measured.

Test [1] deals with RS4;11 leukaemia tumour line. As to the kind of experiment: In vitro cytotoxicity (MTT) on RS4;11. It is filed as cell-based. Particulars: RS4;11 cells, 48 hours exposure. As to the method: The cytotoxicity studies were carried out on the RS4;11 leukaemia tumour line.
The cells are distributed onto microplates and exposed to the test compounds for 48 hours.
The cell viability is then quantified by a colorimetric assay, the Microculture Tetrazolium Assay (Cancer Res., 1987, 47, 939-942).

Counter-ions that a name gives are not always drawn.

T1 sequence (P10415 whole entry): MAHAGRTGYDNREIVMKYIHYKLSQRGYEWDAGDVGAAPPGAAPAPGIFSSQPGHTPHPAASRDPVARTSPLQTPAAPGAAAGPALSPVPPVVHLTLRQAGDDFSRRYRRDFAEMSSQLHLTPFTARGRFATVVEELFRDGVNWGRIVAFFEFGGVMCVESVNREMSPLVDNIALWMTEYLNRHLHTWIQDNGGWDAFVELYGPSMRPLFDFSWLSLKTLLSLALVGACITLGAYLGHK

As for `C[C@@H]1Cc2ccccc2CN1C(=O)c1cc2c(cc1-c1cc(C(=O)N(c3ccc(O)cc3)c3cc[n+](C)cc3)c3ccccn13)OCO2` [Example 71, 4-[(4-Hydroxyphenyl){[3-(6-{[(3R)-3-methyl-3,4-dihydroisoquinolin-2(1H)-yl]carbonyl}-1,3-benzodioxol-5-yl)indolizin-1-yl]carbonyl}amino]-1-methyl-pyridinium chloride], on Bcl-2 protein, the concentration for half-maximal inhibition (IC50) was 49 nM.
With `C[C@@H]1Cc2ccccc2CN1C(=O)c1ccc(Cl)cc1-c1cc(C(=O)N(c2ccc(O)cc2)c2ccc3c(ccn3CCN3CCOCC3)c2)c2ccccn12` [Example 8, 3-(5-Chloro-2-{[(3R)-3-methyl-3,4-dihydroisoquinolin-2(1H)-yl]-carbonyl}phenyl)-N-(4-hydroxyphenyl)-N-{1-[2-(morpholin-4-yl)ethyl]-1H-indol-5-yl}indolizine-1-carboxamide hydrochloride], the results for the half-maximal inhibitory concentration (IC50) (on Bcl-2 protein; in test [1] (Homo sapiens)) were 24.5 nM and 20.5 nM, respectively.
Turning to `CN(C(=O)c1cc(-c2cc3c(cc2C(=O)N2CCc4ccccc4C2)OCO3)n2c1CNCC2)c1ccc(O)cc1` [Example 84, 6-[6-(3,4-Dihydroisoquinolin-2(1H)-ylcarbonyl)-1,3-benzodioxol-5-yl]-N-(4-hydroxyphenyl)-N-methyl-1,2,3,4-tetrahydropyrrolo[1,2-a]pyrazine-8-carboxamide], the IC50 at Bcl-2 protein was 525 nM.
As for `C[C@@H]1Cc2ccccc2CN1C(=O)c1ccc(Cl)cc1-c1cc(C(=O)N(c2ccc(O)cc2)c2ccc3c(ccn3C)c2)c2n1CCNC2` [Example 3, 6-(5-Chloro-2-{[(3R)-3-methyl-3,4-dihydroisoquinolin-2(1H)-yl]-carbonyl}phenyl)-N-(4-hydroxyphenyl)-N-(1-methyl-1H-indol-5-yl)-1,2,34-tetrahydropyrrolo[1,2-a]pyrazine-8-carboxamide hydrochloride], the half-inhibitory concentration (IC50) on Bcl-2 protein was determined as 33.6 nM; in test [1] (Homo sapiens), 66.5 nM.
Taken in the same sequence, the figures for `O=C(c1cc(-c2cc3c(cc2C(=O)N2Cc4ccccc4C[C@H]2CCN2CCOCC2)OCO3)n2c1CCCC2)N(c1ccccc1)c1ccc(O)cc1` [Example 13, N-(4-Hydroxyphenyl)-3-(6-{[(3S)-3-[2-(morpholin-4-yl)ethyl]-3,4-dihydroisoquinolin-2(1H)-yl]carbonyl}-1,3-benzodioxol-5-yl)-N-phenyl-5,6,7,8-tetrahydroindolizine-1-carboxamide hydrochloride] were 5.8 nM and 33.6 nM.
`CC(C)N(C(=O)c1cc(-c2cc3c(cc2C(=O)N2Cc4ccccc4C[C@H]2C)OCO3)n2c1CNCC2)c1ccc(O)cc1` [Example 80, N-(4-Hydroxyphenyl)-6-(6-{[(3R)-3-methyl-3,4-dihydroisoquinolin-2(1H)-yl]carbonyl}-1,3-benzodioxol-5-yl)-N-(propan-2-yl)-1,2,3,4-tetrahydro-pyrrolo[1,2-a]pyrazine-8-carboxamide]: the half-inhibitory concentration (IC50) is 299 nM on Bcl-2 protein and 1880 nM in test [1] (Homo sapiens).
Taken in the same sequence, the figures for `C[C@@H]1Cc2ccccc2CN1C(=O)c1cc2c(cc1-c1cc(C(=O)N(C)c3ccc(O)cc3)c3n1CCNC3)OCO2` [Example 72, N-(4-Hydroxyphenyl)-N-methyl-6-(6-{[(3R)-3-methyl-3,4-dihydroiso-quinolin-2(1H)-yl]carbonyl}-1,3-benzodioxol-5-yl)-1,2,3,4-tetrahydropyrrolo[1,2-a]-pyrazine-8-carboxamide] were 90.2 nM and 1520 nM.
On to `C[C@@H]1Cc2ccccc2CN1C(=O)c1ccc(Cl)cc1-c1cc(C(=O)N(c2ccc(O)cc2)c2ccc3c(ccn3C)c2)c2n1CCN(C)C2` [Example 7, 6-(5-Chloro-2-{[(3R)-3-methyl-3,4-dihydroisoquinolin-2(1H)-yl]-carbonyl}phenyl]-N-(4-hydroxyphenyl)-2-methyl-N-(1-methyl-1H-indol-5-yl)-1,2,3,4-tetrahydropyrrolo[1,2-a]pyrazine-8-carboxamide], for which the IC50 at Bcl-2 protein worked out at 46.4 nM; in test [1] (Homo sapiens) it was 108 nM.
For `C[C@@H]1Cc2ccccc2CN1C(=O)c1cc2c(cc1-c1cc(C(=O)N(c3ccc(O)cc3)c3ccc4c(ccn4C)c3)c3n1CCN(C)C3)OCCO2` [Example 6, N-(4-Hydroxyphenyl)-2-methyl-6-(7-{[(3R)-3-methyl-3,4-dihydroiso-quinolin-2(1H)-yl]carbonyl}-2,3-dihydro-1,4-benzodioxin-6-yl)-N-(1-methyl-1H-indol-5-yl)-1,2,3,4-tetrahydropyrrolo[1,2-a]pyrazine-8-carboxamide hydrochloride], in that order: 60.3 nM and 161 nM.
For `O=C(c1cc(-c2cc3c(cc2C(=O)N2Cc4ccccc4C[C@H]2CCCN2CCOCC2)OCO3)n2c1CCCC2)N(c1ccccc1)c1ccc(O)cc1` [Example 38, N-(4-Hydroxyphenyl)-3-(6-{[(3R)-3-[3-(morpholin-4-yl)propyl]-3,4-dihydroisoquinolin-2(1H)-yl]carbonyl}-1,3-benzodioxol-5-yl)-N-phenyl-5,6,7,8-tetrahydroindolizine-1-carboxamide hydrochloride], in that order: 4.6 nM and 9.52 nM.
On to `CCN(C(=O)c1cc(-c2cc3c(cc2C(=O)N2Cc4ccccc4C[C@@H]2C)OCO3)n2c1CNCC2)c1ccc(O)cc1` [Example 77, N-Ethyl-N-(4-hydroxyphenyl)-6-(6-{[(3S)-3-methyl-3,4-dihydroiso-quinolin-2(1H)-yl]carbonyl}-1,3-benzodioxol-5-yl)-1,2,3,4-tetrahydropyrrolo[1,2-a]-pyrazine-8-carboxamide], for which the “percentage fluorescence polarisation inhibition (partial inhibitors), Bcl-2 FP” value on Bcl-2 protein (@ 10 μM test compound) was 25.1% @ 10 μM. This compound displayed an IC50 in test [1] of 1880 nM.
In the case of `C[C@@H]1Cc2ccccc2CN1C(=O)c1cc2c(cc1-c1cc(C(=O)N(c3ccc(O)cc3)c3cnn(CCN4CCOCC4)c3)c3ccccn13)OCO2` [Example 45, N-(4-Hydroxyphenyl)-3-(6-{[(3R)-3-methyl-3,4-dihydroisoquinolin-2(1,H)-yl]carbonyl}-1,3-benzodioxol-5-yl)-N-{1-[2-(morpholin-4-yl)ethyl]-1H-pyrazol-4-yl}indolizine-1-carboxamide hydrochloride], the IC50 on Bcl-2 protein was determined as 3.8 nM; in test [1] (Homo sapiens), 63.8 nM.
For `C[C@@H]1Cc2ccccc2CN1C(=O)c1cc2c(cc1-c1cc(C(=O)N(c3ccncc3)c3ccc(O)cc3)c3ccccn13)OCO2` [Example 21, N-(4-Hydroxyphenyl)-3-(6-{[(3R)-3-methyl-3,4-dihydroisoquinolin-2(1H)-yl]carbonyl}-1,3-benzodioxol-5-yl)-N-(pyridin-4-yl)indolizine-1-carboxamide hydrochloride], in that order: 4.6 nM and 25.3 nM.
With `C[C@@H]1Cc2ccccc2CN1C(=O)c1ccccc1-c1cc(C(=O)N(c2ccncc2)c2ccc(O)cc2)c2ccccn12` [Example 68, N-(4-Hydroxyphenyl)-3-(2-{[(3R)-3-methyl-3,4-dihydroisoquinolin-2(1H)-yl]carbonyl}phenyl)-N-(pyridin-4-yl)indolizine-1-carboxamide hydrochloride], the 50% inhibitory concentration (IC50) is 8.3 nM on Bcl-2 protein and 82.4 nM in test [1] (Homo sapiens).
Regarding `COc1ccc(-c2cc(C(=O)N(c3ccccc3)c3ccc(O)cc3)c3n2CCCC3)c(C(=O)N2Cc3ccccc3C[C@H]2CCN2CCOCC2)c1` [Example 29, N-(4-Hydroxyphenyl)-3-(4-methoxy-2-{[(3S)-3-[2-(morpholin-4-yl)ethyl]-3,4-dihydroisoquinolin-2(1H)-yl]carbonyl}phenyl)-N-phenyl-5,6,7,8-tetrahydro-indolizine-1-carboxamide hydrochloride], the 50% inhibitory concentration (IC50) on Bcl-2 protein is 19 nM; in test [1] (Homo sapiens), 163 nM.
Taken in the same sequence, the figures for `CN(C(=O)c1cc(-c2cc3c(cc2C(=O)N2CCc4ccccc4C2)OCO3)n2c1CCCC2)c1ccc(O)cc1` [Example 74, 3-[6-(3,4-Dihydroisoquinolin-2(1H)-ylcarbonyl)-1,3-benzodioxol-5-yl]-N-(4-hydroxyphenyl)-N-methyl-5,6,7,8-tetrahydroindolizine-1-carboxamide] were 68.7 nM and 1340 nM.
For `C[C@@H]1Cc2ccccc2CN1C(=O)c1cc2c(cc1-c1cc(C(=O)N(c3ccc(O)cc3)c3ccc(OCCN4CCOCC4)c(F)c3)c3ccccn13)OCO2` [Example 17, N-{3-Fluoro-4-[2-(morpholin-4-yl)ethoxy]phenyl}-N-(4-hydroxyphenyl)-3-(6-{[(3R)-3-methyl-3,4-dihydroisoquinolin-2(1H)-yl]carbonyl}-1,3-benzodioxol-5-yl)indolizine-1-carboxamide hydrochloride], in that order: 3.4 nM and 11.8 nM.
Take `C[C@@H]1Cc2ccccc2CN1C(=O)c1cc2c(cc1-c1cc(C(=O)N(c3ccc(O)cc3)c3cnc4ccnn4c3)c3ccccn13)OCO2` [Example 59, N-(4-Hydroxyphenyl)-3-(6-{[(3R)-3-methyl-3,4-dihydroisoquinolin-2(1H)-yl]carbonyl}-1,3-benzodiaxol-5-yl)-N-(pyrazolo[1,5-a]pyrimidin-6-yl)indolizine-1-carboxamide]: the IC50 at Bcl-2 protein is 4 nM; in test [1] (Homo sapiens), 21.2 nM.
`CCN(C(=O)c1cc(-c2cc3c(cc2C(=O)N2CCc4ccccc4C2)OCO3)n2c1CNCC2)c1ccc(O)cc1` [Example 85, 6-[6-(3,4-Dihydroisoquinolin-2(1H)-ylcarbonyl)-1,3-benzodioxol-5-yl]-N-ethyl-N-(4-hydroxyphenyl)-1,2,3,4-tetrahydropyrrolo[1,2-a]pyrazine-8-carboxamide]: the IC50 on Bcl-2 protein came out at 243 nM.
